Data from ChEMBL document CHEMBL1136076, “A new class of histamine H(3)-receptor antagonists: synthesis and structure-activity relationships of 7,8,9,10-tetrahydro-6H-cyclohepta[b]quinolines” (Bioorg Med Chem Lett, 2003).

Experiments:
[1] = molecular target: T1, Histamine H3 receptor (Homo sapiens, UniProt Q9Y5N1); assay: Binding affinity towards cloned human H3L receptor
[2] = molecular target: Histamine H3 receptor (Rattus norvegicus, UniProt Q9QYN8); assay: Binding affinity towards rat cortical Histamine H3 receptor
Sequence of Histamine H3 receptor (Rattus norvegicus, UniProt Q9QYN8) (Q9QYN8 whole entry): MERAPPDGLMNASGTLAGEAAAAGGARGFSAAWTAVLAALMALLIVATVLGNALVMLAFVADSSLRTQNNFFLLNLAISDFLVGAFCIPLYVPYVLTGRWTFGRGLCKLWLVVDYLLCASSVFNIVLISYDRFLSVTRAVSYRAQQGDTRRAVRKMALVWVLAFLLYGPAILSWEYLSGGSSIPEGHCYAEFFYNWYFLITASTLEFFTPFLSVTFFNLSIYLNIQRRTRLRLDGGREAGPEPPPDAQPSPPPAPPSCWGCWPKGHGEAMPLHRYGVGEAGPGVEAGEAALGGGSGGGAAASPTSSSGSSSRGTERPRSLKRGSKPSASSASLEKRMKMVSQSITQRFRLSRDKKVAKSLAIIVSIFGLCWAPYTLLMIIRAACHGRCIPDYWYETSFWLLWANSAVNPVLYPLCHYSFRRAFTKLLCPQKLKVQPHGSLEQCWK

[3] = molecular target: Histamine H1 receptor (Homo sapiens, UniProt P35367); assay: Compound was tested for its binding affinity towards human H1 receptor
Sequence of Histamine H1 receptor (P35367 whole entry): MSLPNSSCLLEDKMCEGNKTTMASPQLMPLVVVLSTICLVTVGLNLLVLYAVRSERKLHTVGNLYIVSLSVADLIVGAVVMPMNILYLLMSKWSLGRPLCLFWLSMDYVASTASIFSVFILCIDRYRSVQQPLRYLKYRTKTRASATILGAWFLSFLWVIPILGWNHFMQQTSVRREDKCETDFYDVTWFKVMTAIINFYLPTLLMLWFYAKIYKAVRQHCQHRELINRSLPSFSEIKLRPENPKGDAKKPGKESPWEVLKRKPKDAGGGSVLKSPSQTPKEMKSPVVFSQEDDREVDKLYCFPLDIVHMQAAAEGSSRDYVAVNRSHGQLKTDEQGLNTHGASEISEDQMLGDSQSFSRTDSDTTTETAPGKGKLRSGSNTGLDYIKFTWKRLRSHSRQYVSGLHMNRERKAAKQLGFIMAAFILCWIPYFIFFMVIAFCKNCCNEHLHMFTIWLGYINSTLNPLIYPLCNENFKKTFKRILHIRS

[4] = molecular target: T1, Histamine H3 receptor; assay: Compound was tested for its binding affinity towards human H3L receptor
[5] = molecular target: Histamine H2 receptor (Homo sapiens, UniProt P25021); assay: Compound was tested for its binding affinity towards human H2 receptor
Sequence of Histamine H2 receptor (P25021 whole entry): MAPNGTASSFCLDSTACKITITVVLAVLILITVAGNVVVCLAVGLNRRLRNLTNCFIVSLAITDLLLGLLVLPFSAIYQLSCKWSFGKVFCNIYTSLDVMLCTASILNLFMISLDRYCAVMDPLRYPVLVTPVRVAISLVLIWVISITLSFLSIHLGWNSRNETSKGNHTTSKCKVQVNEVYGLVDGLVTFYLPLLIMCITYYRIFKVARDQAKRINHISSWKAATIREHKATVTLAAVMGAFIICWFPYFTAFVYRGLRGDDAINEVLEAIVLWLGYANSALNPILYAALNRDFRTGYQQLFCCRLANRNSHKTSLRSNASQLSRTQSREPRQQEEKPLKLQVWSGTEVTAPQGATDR

T1 sequence (Q9Y5N1 whole entry): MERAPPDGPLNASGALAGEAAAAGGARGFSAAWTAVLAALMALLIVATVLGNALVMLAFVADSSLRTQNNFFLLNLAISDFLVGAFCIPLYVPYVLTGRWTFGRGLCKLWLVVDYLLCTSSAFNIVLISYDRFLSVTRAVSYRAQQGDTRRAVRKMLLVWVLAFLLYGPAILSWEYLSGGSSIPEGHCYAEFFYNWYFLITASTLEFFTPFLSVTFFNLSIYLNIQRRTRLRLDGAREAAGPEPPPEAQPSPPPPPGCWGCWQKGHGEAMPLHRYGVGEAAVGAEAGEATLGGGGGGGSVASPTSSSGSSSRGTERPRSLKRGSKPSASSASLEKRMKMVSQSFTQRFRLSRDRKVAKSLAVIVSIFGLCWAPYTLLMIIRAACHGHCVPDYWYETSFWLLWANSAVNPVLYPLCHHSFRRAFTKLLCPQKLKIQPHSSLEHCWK

Row | Structure (SMILES) | Ki [1] [nM] | Ki [2] [nM] | Ki [3] [nM] | Ki [4] [nM] | Ki [5] [nM]
1 | C(#Cc1c2c(nc3ccccc13)CCCCC2)CCN1CCOCC1 | > 1000 | > 1000 |  |  | 
2 | CN(C)CCCCNc1c2c(nc3ccccc13)CCCCC2 | 43.7 | 38.9 |  |  | 
3 | OC[C@H]1CCN(CCC#Cc2c3c(nc4ccccc24)CCCCC3)C1 | 955 | > 1000 |  |  | 
4 | CN1CCCC1CCNc1c2c(nc3ccccc13)CCCCC2 (stereo not drawn) | 6.61 | 18.2 | 4080 | 6.6 | 1730
5 | CC(C)(C)OC(=O)N1CCCN(c2c3c(nc4ccccc24)CCCCC3)CC1 | > 1000 | > 1000 |  |  | 
6 | OC[C@@H]1CCN(CCC#Cc2c3c(nc4ccccc24)CCCCC3)C1 | 251 | 617 |  |  | 
7 | CN(C)CCCNc1c2c(nc3c1CCCC3)CCCCC2 |  | 355 |  |  | 
8 | c1ccc2c(N3CCCNCC3)c3c(nc2c1)CCCCC3 | > 1000 | > 1000 |  |  | 
9 | c1ccc2c(NCCCn3ccnc3)c3c(nc2c1)CCCCC3 | > 1000 | > 1000 |  |  | 
10 | CN(C)CCCNc1c2c(nc3ccccc13)CCCCC2 | 9.77 | 21.9 | 7700 | 9.7 | 10100
11 | CC(=O)N(CCCN(C)C)c1c2c(nc3ccccc13)CCCCC2 | 1000 | > 1000 |  |  | 
12 | CC(C)(C)OC(=O)N1CCN(c2c3c(nc4ccccc24)CCCCC3)CC1 | > 1000 | > 1000 |  |  | 
13 | CN(C)CCNc1c2c(nc3ccccc13)CCCCC2 | 47.9 | 148 |  |  | 
14 | N[C@@H]1[C@H]2CN(CCCNc3c4c(nc5ccccc35)CCCCC4)C[C@@H]12 | 44.7 | 74.1 |  |  | 
15 | CN(C)CCCNc1c2c(nc3ccccc13)CCSC2 | 53.7 | 58.9 |  |  | 
16 | CC(C)(C)OC(=O)N[C@H]1[C@@H]2CN(CCCNc3c4c(nc5ccccc35)CCCCC4)C[C@@H]21 | 46.8 | 51.3 |  |  | 
17 | CN(C)CCC#Cc1c2c(nc3ccccc13)CCCCC2 | 389 | 692 |  |  | 

Now from value to compound:

Row | Ki [1] [nM] | Ki [2] [nM] | Ki [3] [nM] | Ki [4] [nM] | Ki [5] [nM] | Structure (SMILES)
18 | 724 | > 1000 |  |  |  | CN1CCN(CCC#Cc2c3c(nc4ccccc24)CCCCC3)CC1
19 | 87.1 | 275 |  |  |  | C(=C/c1c2c(nc3ccccc13)CCCCC2)/CCN1CCCCC1
20 | 1.74 | 2.51 | 15700 | 6.6 | 3780 | c1ccc2c(NCCCN3CCCC3)c3c(nc2c1)CCCCC3
21 | 759 | 398 |  |  |  | c1ccc2c(NCCCN3CCOCC3)c3c(nc2c1)CCCCC3
22 | 79.4 | 407 | 1000 | 80 | 3210 | C(#Cc1c2c(nc3ccccc13)CCCCC2)CCN1CCCCC1
23 | 437 | > 1000 |  |  |  | C(#Cc1c2c(nc3ccccc13)CCCCC2)CCN1CCCCCC1
24 | 158 | 646 |  |  |  | C(#Cc1c2c(nc3ccccc13)CCCCCC2)CCN1CCCCC1
25 | 214 | 646 |  |  |  | C(#Cc1c2c(nc3ccccc13)CCCCC2)CCN1CCCC1
26 | 51.3 | 97.7 |  |  |  | CN1CCN(CCCNc2c3c(nc4ccccc24)CCCCC3)CC1
